Read-outs that look alike come from different tables or passages of the source.
Assays:
[1] = tested on: synthesis of LTB4 in human whole blood; test: Human whole blood assay (calcimycin-stimulated LTB4 synthesis); format: cell-based; conditions: read-out: Human Whole Blood LTB4 Assay for FLAP (IC50 nM)
Description: Compounds are additionally tested in a human whole blood assay to determine their ability to inhibit the synthesis of LTB4 in a cellular system. Compounds are combined with heparinized human whole blood and incubated for 15 minutes at 37° C. Calcimycin (20 μM final, prepared in phosphate-buffered saline, pH 7.4) is then added and the mixture is incubated for another 30 minutes at 37° C. The samples are centrifuged for 5 min at low speed (1500×g) and the plasma layer is removed. Plasma LTB4 concentrations are then measured using an antibody-based homogenous time-resolved fluorescence method (CisBio, Bedford, Mass.).

[2] = target: T1, recombinant human FLAP protein (Homo sapiens, UniProt P20292); test: FLAP binding assay (Scintillation Proximity Assay, displacement of [125I]L-691,831); conditions: read-out: Human FLAP SPA Binding (IC50 nM)
T1 construct: made in house; host or cells: Sf9 insect cells (membrane fraction, 100,000 x g pellet)
T1 sequence (P20292 1-161): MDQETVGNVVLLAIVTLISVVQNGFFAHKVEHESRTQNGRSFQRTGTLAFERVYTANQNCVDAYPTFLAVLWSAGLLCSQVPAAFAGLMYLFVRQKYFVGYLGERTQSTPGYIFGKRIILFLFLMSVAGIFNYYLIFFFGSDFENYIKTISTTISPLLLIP
Description: Compounds are assessed for the ability to bind to FLAP in a binding assay that measures compound-specific displacement of an iodinated (^125I) FLAP inhibitor via a Scintillation Proximity Assay format (adapted from S. Charleson et al., Mol. Pharmacol., 1992, 41, 873-879).
Cell pellets produced from sf9 insect cells expressing recombinant human FLAP protein are resuspended in buffer A [15 mM Tris-HCl (pH 7.5), 2 mM MgCl2, 0.3 mM EDTA, 1 mM PMSF]. The cells are lysed with a Dounce homogenizer and the material is centrifuged at 10,000×g for 10 minutes. The supernatant is then collected and centrifuged at 100,000×g for 60 minutes. To prepare membrane protein for an assay, an aliquot of the 100,000×g pellet is resuspended in 1 ml of buffer A, Dounce homogenized, and finally subjected to polytron mixing (30 seconds). Membrane protein (25 μl, 5 μg) is mixed with WGA SPA beads (Amersham) and stirred for 1 h. To an assay plate (Perkin Elmer FlexiPlate) is added 25 μl of test compound prepared in Binding buffer [100 mM Tris (pH 7.5), 140 mM NaCl, 5% glycerol, 2 mM EDTA, 0.5 mM TCEP, 0.05% Tween 20], 25 μl of [^125I]L-691,831 (an iodinated analog of MK-591, Charleson et al. Mol. Pharmacol., 41, 873-879, 1992) and finally 50 μl of the bead/protein mixture. (final concentrations: beads, 200 μg/well; protein, 5 μg/well; [^125I] probe, 0.08 nM/well (17 nCi/well). The plates are shaken for 2 h before reading on a Microbeta plate reader. Non-specific binding is determined by the addition of 10 μM cold L-691,831 compound.

SMILES	IC50 ([1]; Homo sapiens)	IC50 [2]	IC50 [1]
Cn1c(C2(c3ccc(-c4cnc(N)nc4)cc3)CCC2)nc2ccccc21 [Example 136, 5-{4-[1-(1-methyl-1H-benzimidazol-2-yl)cyclobutyl]phenyl}pyrimidin-2-amine]	> 5000 nM	190 nM	–
Nc1ncc(-c2ccc(C3(c4c[nH]c5ccccc45)CCCCC3)cc2)cn1 [Example 89, 5-{4-[1-(1H-indol-3-yl)cyclohexyl]phenyl}pyrimidin-2-amine]	2200 nM	12 nM	–
Nc1ncc(-c2ccc(C3(c4nnc(-c5ccccc5)[nH]4)CCC3)cn2)cn1 [Example 121, 5-{5-[1-(5-phenyl-4H-1,2,4-triazol-3-yl)cyclobutyl]pyridin-2-yl}pyrimidin-2-amine]	810 nM	8.7 nM	–
Nc1ncc(-c2ccc(C3(c4c[nH]c5cc(C(=O)NC6CCS(=O)(=O)C6)ccc45)CCC3)cc2)cn1 (centres unmarked) [Example 1, 3-{1-[4-(2-aminopyrimidin-5-yl)phenyl]cyclobutyl}-N-(1,1-dioxidotetrahydrothiophen-3-yl)-1H-indole-6-carboxamide]	1300 nM	1.3 nM	–
c1cnc2[nH]cc(C3(c4ccc(-c5cnc6[nH]ccc6c5)cc4)CCC3)c2c1 [Example 130, 3-{1-[4-(1H-pyrrolo[2,3-b]pyridin-5-yl)phenyl]cyclobutyl}-1H-pyrrolo[2,3-b]pyridine]	140 nM	1.5 nM	–
CN(CCS(C)(=O)=O)C(=O)c1cccc2c(C3(c4ccc(-c5cnc(N)nc5)cc4)CCC3)c[nH]c12 [Example 2, 3-{1-[4-(2-aminopyrimidin-5-yl)phenyl]cyclobutyl}-N-methyl-N-[2-(methylsulfonyl)ethyl]-1H-indole-7-carboxamide]	490 nM	1.9 nM	–
CC(C)(O)Cn1cc(-c2coc([C@](C)(c3ccc(-c4cnc(N)nc4)nc3)C3CC3)n2)cn1 [Example 211, 1-[4-(2-{(S)-1-[6-(2-Amino-pyrimidin-5-yl)-pyridin-3-yl]-1-cyclopropyl-ethyl}-oxazol-4-yl)-pyrazol-1-yl]-2-methyl-propan-2-ol]	> 5000 nM	> 2000 nM	–
Cn1cc(-c2cc([C@](C)(c3ccc(-c4cnc(N)nc4)nc3)C3CC3)no2)cn1 [Example 201, 5-(5-{(S)-1-Cyclopropyl-1-[5-(1-methyl-1H-pyrazol-4-yl)-isoxazol-3-yl]-ethyl}-pyridin-2-yl)-pyrimidin-2-ylamine]	3500 nM	> 2000 nM	–
CC(C)C(C)(c1ccc(-c2cnc(N)nc2)cc1)c1cn(C)c2ncccc12 (centres unmarked) [Example 39, 5-{4-[3-methyl-2-(1-methyl-1H-pyrrolo[2,3-b]pyridin-3-yl)butan-2-yl]phenyl}pyrimidin-2-amine]	290 nM	3.3 nM	–
COc1nccc2c(C3(c4ccc(-c5cnc(N)nc5)cc4)CCC3)c[nH]c12 [Example 145, 5-{4-[1-(7-methoxy-1H-pyrrolo[2,3-b]pyridin-3-yl)cyclobutyl]phenyl}pyrimidin-2-amine]	–	1.7 nM	150 nM
COC(=O)c1cc(-c2cnn(C)c2)c(C2(c3ccc(-c4cnc(N)nc4)cc3)CCC2)[nH]1 [Example 176, methyl 5-{1-[4-(2-aminopyrimidin-5-yl)phenyl]cyclobutyl}-4-(1-methyl-1H-pyrazol-4-yl)-1H-pyrrole-2-carboxylate]	2900 nM	150 nM	–
Nc1ncc(-c2ccc(C3(c4c[nH]c5cc(C(=O)N6CCC(O)C6)ccc45)CCC3)cc2)cn1 (centres unmarked) [Example 106, (3-{1-[4-(2-aminopyrimidin-5-yl)phenyl]cyclobutyl}-1H-indol-6-yl)(3-hydroxypyrrolidin-1-yl)methanone]	4100 nM	0.91 nM	–
CC(C)C(C)(c1ccc(-c2cnc(N)nc2)cc1)c1cn(Cc2ccccn2)c2ccccc12 (centres unmarked) [Example 28, 5-(4-{3-methyl-2-[1-(pyridin-2-ylmethyl)-1H-indol-3-yl]butan-2-yl}phenyl)pyrimidin-2-amine]	610 nM	3.3 nM	–
NC(=O)Cn1cc(C2(c3ccc(-c4cnc(N)nc4)cc3)CCC2)c2ccccc21 [Example 147]	> 5000 nM	7.9 nM	–
Cc1ccc(-c2nnc(C3(c4ccc(-c5cnc(N)nc5)cc4)CCC3)s2)cn1 [Example 131, 5-(4-{1-[5-(6-methylpyridin-3-yl)-1,3,4-thiadiazol-2-yl]cyclobutyl}phenyl)pyrimidin-2-amine]	920 nM	5.5 nM	–
Cn1cc(-c2coc([C@](C)(c3ccc(-c4cnc(N)nc4)cc3)C3CC3)n2)cn1 [Example 186, 5-[4-[(1S)-1-cyclopropyl-1-[4-(1-methylpyrazol-4-yl)oxazol-2-yl]ethyl]phenyl]pyrimidin-2-amine]	2000 nM	87 nM	–
CC(C)C(C)(c1ccc(-c2cnc(N)nc2)cc1)c1c[nH]c2c(C(=O)N3CCC(O)C3)cccc12 (centres unmarked) [Example 98, (3-{2-[4-(2-aminopyrimidin-5-yl)phenyl]-3-methylbutan-2-yl}-1H-indol-7-yl)(3-hydroxypyrrolidin-1-yl)methanone]	360 nM	0.6 nM	–
COc1cncc(-c2ccc(C(C)(c3cn(Cc4ccccn4)c4ccccc34)C(C)C)cc2)c1 (centres unmarked) [Example 27, 3-{2-[4-(5-methoxypyridin-3-yl)phenyl]-3-methylbutan-2-yl}-1-(pyridin-2-ylmethyl)-1H-indole]	1800 nM	20 nM	–
COCC(C)(c1ccc(-c2cnc(N)nc2)cc1)c1cn(C)c2ncccc12 (centres unmarked) [Example 56, 5-{4-[1-methoxy-2-(1-methyl-1H-pyrrolo[2,3-b]pyridin-3-yl)propan-2-yl]phenyl}pyrimidin-2-amine]	> 5000 nM	160 nM	–

More lines, in order of falling IC50 [2], values ahead:

IC50 ([1]; Homo sapiens)	IC50 [2]	IC50 [1]	SMILES
1600 nM	1500 nM	–	CN(C)C(=O)Cn1cc(-c2coc(C(C)(c3ccc(-c4cnc(N)nc4)nc3)C3CC3)n2)cn1 (centres unmarked) [Example 205, 2-[4-(2-{1-[6-(2-Amino-pyrimidin-5-yl)-pyridin-3-yl]-1-cyclopropyl-ethyl}-oxazol-4-yl)-pyrazol-1-yl]-N,N-dimethyl-acetamide]
560 nM	40 nM	–	CN(C)C(=O)Cn1cc(-c2coc(C(C)(c3ccc(-c4cnc(N)nc4)cc3)C3CC3)n2)cn1 (centres unmarked) [Example 194, 2-[4-(2-{1-[4-(2-aminopyrimidin-5-yl)phenyl]-1-cyclopropylethyl}-1,3-oxazol-4-yl)-1H-pyrazol-1-yl]-N-dimethylacetamide]
> 5000 nM	27 nM	–	Nc1ncc(-c2ccc(C3(c4nc5ccccc5[nH]4)CCC3)cc2)cn1 [Example 139, 5-{4-[1-(1H-benzimidazol-2-yl)cyclobutyl]phenyl}pyrimidin-2-amine]
1200 nM	9.3 nM	–	CC(C)C(C)(c1ccc(-c2cnc(N)nc2)cc1)c1cc2ccc(F)cc2[nH]1 (centres unmarked) [Example 61, 5-{4-[2-(6-fluoro-1H-indol-2-yl)-3-methylbutan-2-yl]phenyl}pyrimidin-2-amine]
430 nM	5.2 nM	–	Cc1ccc(-c2cc(C3(c4ccc(-c5cnc(N)nc5)cc4)CCC3)no2)cn1 [Example 158, 5-(4-{1-[5-(6-methylpyridin-3-yl)-1,2-oxazol-3-yl]cyclobutyl}phenyl)pyrimidin-2-amine]
80 nM	4.9 nM	–	Cn1cc(-c2cnc(C3(c4ccc(-c5cnc(N)nc5)cc4)CCC3)s2)cn1 [Example 190, 5-(4-{1-[5-(1-methyl-1H-pyrazol-4-yl)-1,3-thiazol-2-yl]cyclobutyl}phenyl)pyrimidin-2-amine]
840 nM	2.7 nM	–	COc1cccc2c(C(C)(c3ccc(-c4cnc(N)nc4)cc3)C(C)C)cn(Cc3ccccn3)c12 (centres unmarked) [Example 51, 5-(4-{2-[7-methoxy-1-(pyridin-2-ylmethyl)-1H-indol-3-yl]-3-methylbutan-2-yl}phenyl)pyrimidin-2-amine]
400 nM	1.6 nM	–	Nc1ncc(-c2ccc(C3(c4c[nH]c5c(F)cccc45)CCC3)cc2)cn1 [Example 87, 5-{4-[1-(7-fluoro-1H-indol-3-yl)cyclobutyl]phenyl}pyrimidin-2-amine]
69 nM	1.1 nM	–	CC(C)C(C)(c1ccc(-c2cnc(N)nc2)cc1)c1c[nH]c2cccc(F)c12 (centres unmarked) [Example 58, 5-{4-[2-(4-fluoro-1H-indol-3-yl)-3-methylbutan-2-yl]phenyl}pyrimidin-2-amine]

From patent US9174980B2, “Heterocyclic compounds as inhibitors of leukotriene production” (Boehringer Ingelheim International GmbH, priority 2012, dated 2015)
